For one series, the system named is human dermal fibroblasts. Nature of the series: Antiproliferative activity, SRB assay, normal cell line. The format is cell-based. Particulars: Fibroblast, 72 h. How it is done:
(§1) Antiproliferative activity was evaluated in various human cancer cell lines (MCF-7, PANC-1, and Caco-2) as well as a normal cell line (human dermal fibroblasts). All cell lines were obtained from the American Type Culture Collection (ATCC, Manassas, VA, USA). MCF-7, PANC-1, and Caco-2 cells were cultured in high glucose Dulbecco’s modified Eagle medium (DMEM; Eurobio Scientific, Les Ulis, France). Fibroblasts were cultured in Iscove’s modified Dulbecco’s medium (IMDM; Eurobio Scientific, Les Ulis, France). All media were supplemented with 10% fetal bovine serum, 1% L-glutamine, and 1% penicillin/streptomycin. The cell lines were maintained at 37 °C in a 5% CO2 atmosphere with 95% humidity. For the cytotoxicity experiments, cells were cultured in 96-well plates at density of 6 × 10^3 cells per well to ensure exponential growth throughout the experimental period and to ensure a linear relationship between absorbance and cell number when analyzed by the sulforhodamine B (SRB) assay. […] One hundred microliters of 10 mM Tris base solution was then added to each well, and the absorbance was recorded on a microplate reader (BioTek Instruments, Winooski, VT, USA) at 570 nm. Results were expressed as % cell viability compared to the control (untreated cells). […]
On the technique in general: In SRB staining, fixed cells bind dye roughly in proportion to their protein.

A short description of series [1]: Pilot pharmacokinetic study after oral administration. The format is in vivo. To be noted: male, Balb/c, mouse, mice, oral gavage, 6 mg/kg TQ, plasma. How it is done:
Thirty male Balb/c mice (8–10 weeks old) were housed in plastic cages in an air-conditioned room with free access to food and water and were fasted overnight prior to the experiment. On the day of the experiment, animals were divided into two groups and each group was administered a single dose of 6 mg/kg TQ either as suspension in ultrapure water or in the form of TQ NPs (F2-NC) via oral gavage. At 1, 2, 4, 6, and 24 h post-administration, three animals from each group were randomly selected and euthanized by diethyl ether, and blood (~1 mL) was collected from the jugular vein into heparinized plastic tubes. Blood samples were left to sit for 45 min at room temperature then centrifuged at 5500 rpm for 30 min at room temperature. Approximately 0.5 mL of plasma was collected into microtubes, and plasma samples were stored at −80 °C until further analysis. The animal protocol for this work was approved by the Animal Care and Use Committee of Al-Zaytoonah University of Jordan (decision no. 1/5/2019–2020). All work was conducted in accordance with the Helsinki guidelines for animal research and all applicable Jordanian governmental rules and guidelines.
The system consisted of a Shimadzu LCMS-8030 quadrupole mass spectrometer (Kyoto, Japan) equipped with an electrospray ionization (ESI) source, and a Shimadzu Prominence 30A Ultra-Fast Liquid Chromatography system composed of a system controller, degasser, binary pump and auto-sampler. Samples were eluted on a C8 column (5 μm, 50 × 2.1 mm) coupled with a guard column (5 μm, 10 × 2.1 mm) at 20 °C. The isocratic mobile phase consisted of acetonitrile (ACN) and 0.2% formic acid (50:50, v/v) at a flow rate of 0.2 mL min^−1 and an injection volume of 20 μL. TQ samples were ionized by the ESI source in negative ion mode ([…] spray voltage). The dwell time was set to 50 ms and the probe temperature was 400 °C. Quantification was performed using multiple reaction monitoring (MRM) of the transitions at m/z 164.0→134.1.
TQ was dissolved in ACN to make a stock solution at 1 mg mL^−1. TQ working standard solutions were prepared by serial dilutions of the stock solution in the mobile phase. Calibration curve samples were prepared by spiking the appropriate TQ working standard solutions into blank plasma obtained from untreated mice to achieve concentrations from 2 to 1000 ng mL^−1.
To 100 μL of plasma (spiked with calibration curve samples or plasma extracted from treated mice), ethyl acetate (1 mL) was added and vortex mixed for 30 s. […] Samples were then injected into the LC-MS/MS system to quantify the plasma concentration of TQ at each time point. […] Plasma t1/2 was determined by fitting the elimination phase of the plots to the first-order model.

The subject of another series is PANC-1. The series can be described thus: Antiproliferative activity, SRB assay, PANC-1. The format is cell-based, human. How it is done: as §1
The subject of the next series is MCF-7. Nature of the series: Antiproliferative activity, SRB assay, MCF-7. The format is cell-based, human. How it is done:
as §1

Another series deals with Caco-2. Nature of the series: Antiproliferative activity, SRB assay, Caco-2. It counts as cell-based, human. How it is done:
as §1

Details of series [2]: method as in earlier work. To be noted: cirsiliol from a formulation similar to F2-NC, cited from earlier work.

SMILES strings stand for the structures. Where two headings read alike, the source gives them in different places.

On to `CC1=CC(=O)C(C(C)C)=CC1=O` [TQ, 2-isopropyl-5-methylbenzo-1,4-quinone], for which the IC50 (as a rule, the point on the concentration scale where inhibition reaches its midpoint) in the series on human dermal fibroblasts was found to be 58.9 ± 10.3 µM; in the series with PANC-1 (Homo sapiens, PANC-1, 72 h, SRB assay), 8.8 ± 2.2 µM; in the series on MCF-7 (Homo sapiens, MCF7, MCF-7, 72 h, SRB assay), 20.5 ± 3.7 µM; in the series with Caco-2 (Homo sapiens, Caco-2, 72 h, SRB assay) it was 30.4 ± 0.5 µM. In addition, in series [1], the AUC(0-inf) (as a rule, the area under the concentration-time curve extrapolated to infinity) came to 4670 ± 508 ng·h/mL. Also, in series [1], the peak level (Cmax) was 388 ± 41.5 ng/mL. Moreover, in series [1], the Tmax (usually the time at which the peak concentration occurs) amounted to 4 h. Moreover, in series [1] (elimination phase first-order fit), the half-life (in general, how long it takes for the measured level to halve) is 5 h. In addition, the “SI (selectivity index)” value in the series on PANC-1 (IC50 in fibroblasts divided by IC50 in PANC-1) is recorded as 6.7; in the series with MCF-7 (IC50 in fibroblasts divided by IC50 in MCF-7), 2.9; in the series with Caco-2 (IC50 in fibroblasts divided by IC50 in Caco-2), 1.9.
Consider `COc1cc2oc(-c3ccc(O)c(O)c3)cc(=O)c2c(O)c1OC` [cirsiliol], for which the cumulative release in series [2] (after 96 h) is ~ 40%; in series [2] (within the first 48 h), ~ 20%.

(Values after article PMC7560238, “Development of a Thymoquinone Polymeric Anticancer Nanomedicine through Optimization of Polymer Molecular Weight and Nanoparticle Architecture” (Pharmaceutics, 2020).)
